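How tested: cells in 96-well plates exposed to compound for 48 hours at five concentrations. GI50 marks 50% less growth. The concentration for full growth arrest is given as TGI.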 Where only a bound is given, the exact number is not on record here.

One test relates to A549 NSCLC. The experiment in a line: DTP human tumour cell line panel, 48 h.
Regarding `C[C@@H]1CC[C@H]2C(COCC3=C(C(F)(F)F)O[C@@H]4O[C@@]5(C)CC[C@H]6[C@H](C)CC[C@@H]3[C@@]46OO5)=C(C(F)(F)F)O[C@@H]3O[C@@]4(C)CC[C@@H]1[C@]32OO4`, the GI50 is 0.0126 µM and the TGI is above 100 µM.
For `CC(=O)OCC1OC(O[C@@H]2C[C@H]3C(C)(C)[C@H](OC(C)=O)CC[C@]3(C)[C@H]3CCC4=C([C@@H](C)C[C@@H](O)[C@H](O)C(C)(C)O)CC[C@@]4(C)[C@@]32C)C(O)C(O)C1O` (some centres not stated), in that order: 19 µM and 33.3 µM.
`CCOc1ccc(NC(=O)CC2Sc3ccccc3NC2=O)cc1` (configuration not stated) had a total growth inhibition concentration (TGI) above 100 µM.
`Cn1cc(NC(=O)c2cc(NC(=O)CCCCCCCCCCC(=O)Nc3cc(C(=O)Nc4cc(C(=O)NCCC(=N)N)n(C)c4)n(C)c3)cn2C)cc1C(=O)NCCC(=N)N` showed a TGI above 100 µM.
On to `C1COCCN1.C1COCCN1.N.N.[Cl-].[Pt+2]`, for which the GI50 is above 100 µM and the TGI was above 100 µM.
For the compound `Cc1ccccc1C(C#N)C(=O)C(=O)Nc1nc([N+](=O)[O-])cs1` (configuration not stated), the TGI was above 100 µM.
For the compound `C=C1C(=O)O[C@H]2[C@H]1CC/C(CNC(=O)c1c[nH]c3ccc(F)cc13)=C\CC[C@@]1(C)O[C@@H]21`, the GI50 is 4.59 µM and the TGI worked out at 19.6 µM.
`COC(=O)C(c1[nH]nc2ccccc12)C(C(=O)OC)c1[nH]nc2ccccc12` (configuration not stated): the TGI was above 100 µM.
Still for that read-out and setting: then `C#CCNC(=O)NC(CCCNC(=O)OCc1ccccc1)C(=O)OCc1ccccc1` (configuration not stated), with above 100 µM; and `O=c1[nH]c2ccccc2cc1C(Cl)=C(Cl)Cl`, with above 100 µM.
Still for that read-out and setting: for `O=[N+]([O-])[C@@H]1C2C=CC(C2)[C@H]1Cl` (some centres not stated) the value was above 100 µM.
On the same count and under the same terms, for `COC(=O)C(C#N)=C1c2ccccc2Oc2ccccc21` the value was above 100 µM; for `N#CC1(c2nc3ccccc3o2)C(=O)C(=O)N(C2C3CC4CC(C3)CC2C4)C(=O)C1=O` (configuration not stated), above 100 µM; for `O=C1NC(c2ccc(O)cc2)C2CCC1C2` (configuration not stated), above 100 µM.
`CCOC(=O)C1(CC)CCCCC(=O)N1` (configuration not stated) displayed a TGI above 100 µM.
In turn, `C=CC1=CSNN1` came in with a TGI above 100 µM.
On the same count and under the same terms, for `O=C(C#Cc1c[nH]c(=O)[nH]c1=O)c1ccccc1Cl` the value was above 100 µM; for `CC(=O)OC1=C2CC3(C)OC(=O)CC(C)(C)C3=CC=C2C=C(C(C)C)C1=O` (configuration not stated), 3.78 µM.
In turn, `CCCCCCCCCCCCCCCC(=O)NCC(COP(=O)([O-])OCC[N+](C)(C)C)OCC` (configuration not stated) displayed a TGI of 45.7 µM.
Regarding `C=C1CCC2C(/C=C(\C)CCC1O)OC(=O)C2C` (configuration not stated), the GI50 was above 100 µM and the TGI is above 100 µM.
With `O=C1NC2(CCCC2)C(=O)C12CCCC2`, the TGI is above 100 µM.
The same measure, in the same setting: for `O=C1CCCN(c2ccccc2)N1` the value was above 100 µM; for `CN(C)/C(=N/C(=S)Nc1ccccc1)SCc1ccccc1`, above 100 µM.
`CCOC(=O)C1=C(C)Nc2ccccc2S1` returned a TGI above 100 µM.
Compound `CCOC(=O)CC1=Nc2ccccc2SC1` showed a TGI above 100 µM.
The compound `C=CCSC[C@H](NC(=O)COc1ccccc1)C(=O)NC(C(=O)OCc1ccc([N+](=O)[O-])cc1)=C(C)C` yielded a TGI above 100 µM.

Another test relates to BT-549 breast. The test is described as follows: DTP human tumour cell line panel, 48 h.
As for `CC(=O)OCC1OC(O[C@@H]2C[C@H]3C(C)(C)[C@H](OC(C)=O)CC[C@]3(C)[C@H]3CCC4=C([C@@H](C)C[C@@H](O)[C@H](O)C(C)(C)O)CC[C@@]4(C)[C@@]32C)C(O)C(O)C1O` (some centres not stated), the GI50 was 15.4 µM and the TGI stood at 28.7 µM.
For `C=C1C(=O)O[C@H]2[C@H]1CC/C(CNC(=O)c1c[nH]c3ccc(F)cc13)=C\CC[C@@]1(C)O[C@@H]21`, in that order: 1.19 µM and 2.7 µM.
On to `CCC(C)C1NC(=O)c2nc(oc2-c2ccccc2)-c2csc(n2)-c2csc(n2)-c2nc(oc2C)-c2coc(n2)CNC(=O)C(C(C)CC)NC1=O` (configuration not stated), for which the GI50 was 0.0659 µM and the TGI turned out to be 0.204 µM.

The subject of the next test is KM12 colon. The test is described as follows: DTP human tumour cell line panel, 48 h.
As for `C[C@@H]1CC[C@H]2C(COCC3=C(C(F)(F)F)O[C@@H]4O[C@@]5(C)CC[C@H]6[C@H](C)CC[C@@H]3[C@@]46OO5)=C(C(F)(F)F)O[C@@H]3O[C@@]4(C)CC[C@@H]1[C@]32OO4`, the GI50 is below 0.01 µM and the TGI was above 100 µM.
For `CC(=O)OCC1OC(O[C@@H]2C[C@H]3C(C)(C)[C@H](OC(C)=O)CC[C@]3(C)[C@H]3CCC4=C([C@@H](C)C[C@@H](O)[C@H](O)C(C)(C)O)CC[C@@]4(C)[C@@]32C)C(O)C(O)C1O` (some centres not stated), in that order: 22.6 µM and 37.1 µM.
As for `CCOc1ccc(NC(=O)CC2Sc3ccccc3NC2=O)cc1` (configuration not stated), the TGI amounted to 95.2 µM.
On the same count and under the same terms, for `Cn1cc(NC(=O)c2cc(NC(=O)CCCCCCCCCCC(=O)Nc3cc(C(=O)Nc4cc(C(=O)NCCC(=N)N)n(C)c4)n(C)c3)cn2C)cc1C(=O)NCCC(=N)N` the value was above 100 µM; for `Cc1ccccc1C(C#N)C(=O)C(=O)Nc1nc([N+](=O)[O-])cs1` (configuration not stated), above 100 µM.
For `C=C1C(=O)O[C@H]2[C@H]1CC/C(CNC(=O)c1c[nH]c3ccc(F)cc13)=C\CC[C@@]1(C)O[C@@H]21`, the GI50 was 2.69 µM and the TGI came out at 10.2 µM.
In turn, `COC(=O)C(c1[nH]nc2ccccc12)C(C(=O)OC)c1[nH]nc2ccccc12` (configuration not stated) came in with a TGI above 100 µM.
In turn, `C#CCNC(=O)NC(CCCNC(=O)OCc1ccccc1)C(=O)OCc1ccccc1` (configuration not stated) came in with a TGI above 100 µM.
The same measure, in the same setting: for `O=c1[nH]c2ccccc2cc1C(Cl)=C(Cl)Cl` the value was above 100 µM.
Same read-out and setting: for `O=[N+]([O-])[C@@H]1C2C=CC(C2)[C@H]1Cl` (some centres not stated) the value was above 100 µM.
Consider `COC(=O)C(C#N)=C1c2ccccc2Oc2ccccc21`, for which the TGI was above 100 µM.
The same measure, in the same setting: for `N#CC1(c2nc3ccccc3o2)C(=O)C(=O)N(C2C3CC4CC(C3)CC2C4)C(=O)C1=O` (configuration not stated) the value was above 100 µM; for `O=C1NC(c2ccc(O)cc2)C2CCC1C2` (configuration not stated), above 100 µM; for `C=CC1=CSNN1`, above 100 µM.
With `O=C(C#Cc1c[nH]c(=O)[nH]c1=O)c1ccccc1Cl`, the TGI was determined as 88.4 µM.
Compound `CC(=O)OC1=C2CC3(C)OC(=O)CC(C)(C)C3=CC=C2C=C(C(C)C)C1=O` (configuration not stated) returned a TGI of 3.07 µM.
On the same count and under the same terms, for `CCCCCCCCCCCCCCCC(=O)NCC(COP(=O)([O-])OCC[N+](C)(C)C)OCC` (configuration not stated) the value was 3.01 µM.
For `CCC(C)C1NC(=O)c2nc(oc2-c2ccccc2)-c2csc(n2)-c2csc(n2)-c2nc(oc2C)-c2coc(n2)CNC(=O)C(C(C)CC)NC1=O` (configuration not stated), the 50% growth inhibitory concentration (GI50) is 0.0223 µM and the TGI is 0.119 µM.
In the case of `C=C1CCC2C(/C=C(\C)CCC1O)OC(=O)C2C` (configuration not stated), the GI50 is above 100 µM and the total growth inhibition concentration (TGI) was above 100 µM.
On to `O=C1NC2(CCCC2)C(=O)C12CCCC2`, for which the TGI is above 100 µM.

The values above are taken from PubChem BioAssay (NCI).
